Two molecules from ChEMBL document CHEMBL4665828, “Glucosylpolyphenols as Inhibitors of Aβ-Induced Fyn Kinase Activation and Tau Phosphorylation: Synthesis, Membrane Permeability, and Exploratory Target Assessment within the Scope of Type 2 Diabetes and Alzheimer's Disease” (J Med Chem, 2020) can be followed below.

pKi: −log10 of the molar value. The source made the active and inactive calls. No cut-off for these calls is given here. Bounds are passed on as bounds.

The target of data set [1] is Acetylcholinesterase (Electrophorus electricus) (UniProt O42275). Briefly: Inhibition of electric eel AChE at 100 uM using acetylthiocholine iodide as substrate by Ellman's colorimetric analysis relative to control. In general terms: DTNB colorimetry detects thiols as they appear.
Acetylcholinesterase (Electrophorus electricus), sequence (O42275 24-633 limits assumed): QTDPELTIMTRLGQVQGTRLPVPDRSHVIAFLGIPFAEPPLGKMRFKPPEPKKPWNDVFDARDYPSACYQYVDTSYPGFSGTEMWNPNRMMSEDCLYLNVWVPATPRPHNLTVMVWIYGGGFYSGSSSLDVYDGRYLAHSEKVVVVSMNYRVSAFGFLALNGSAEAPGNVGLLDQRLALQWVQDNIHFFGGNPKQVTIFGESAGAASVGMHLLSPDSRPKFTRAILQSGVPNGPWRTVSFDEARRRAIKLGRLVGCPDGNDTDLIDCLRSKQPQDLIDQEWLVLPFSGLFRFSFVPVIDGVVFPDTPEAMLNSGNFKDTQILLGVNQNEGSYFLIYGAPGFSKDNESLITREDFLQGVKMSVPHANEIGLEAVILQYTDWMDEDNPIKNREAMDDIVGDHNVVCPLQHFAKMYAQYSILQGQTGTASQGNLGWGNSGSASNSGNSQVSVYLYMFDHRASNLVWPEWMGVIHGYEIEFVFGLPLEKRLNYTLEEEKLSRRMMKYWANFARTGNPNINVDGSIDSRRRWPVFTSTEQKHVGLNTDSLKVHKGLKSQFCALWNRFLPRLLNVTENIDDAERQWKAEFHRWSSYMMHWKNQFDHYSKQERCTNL
For data set [2], the target named is T1, Tyrosine-protein kinase Fyn (Homo sapiens, UniProt P06241). Briefly: Inhibition of natural amyloid beta (1 to 42) -induced Fyn activation in hiPSC neural progenitor cells assessed as reduction in Fyn production at 10 uM preincubated fot 45 mins followed by amyloid beta addition and measured after 15 mins by DAPI/Alexa fluor 594 immunostaining based assay. To be noted: Induced pluripotent stem cell-derived neuron, time 60.0 min.
Target sequence in this assay (P06241 2-537 limits assumed): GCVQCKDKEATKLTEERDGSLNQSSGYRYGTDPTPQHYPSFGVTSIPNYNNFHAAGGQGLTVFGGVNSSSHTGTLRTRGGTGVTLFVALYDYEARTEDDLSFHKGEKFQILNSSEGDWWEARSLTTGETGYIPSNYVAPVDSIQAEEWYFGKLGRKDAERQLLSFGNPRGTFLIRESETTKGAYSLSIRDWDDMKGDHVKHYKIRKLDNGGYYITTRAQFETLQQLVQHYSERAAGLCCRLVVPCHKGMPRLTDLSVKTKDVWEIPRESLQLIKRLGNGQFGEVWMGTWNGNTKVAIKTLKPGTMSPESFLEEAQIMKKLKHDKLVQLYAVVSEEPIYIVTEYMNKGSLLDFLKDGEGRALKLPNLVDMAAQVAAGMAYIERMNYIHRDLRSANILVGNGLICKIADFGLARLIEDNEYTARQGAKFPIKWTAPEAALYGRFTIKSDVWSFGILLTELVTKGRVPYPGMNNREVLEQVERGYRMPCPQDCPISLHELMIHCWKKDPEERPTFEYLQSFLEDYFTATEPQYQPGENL

In data set [3] the test system is Prunus dulcis. Briefly: Competitive inhibition of almond beta-glucosidase at 100 uM using p-nitrophenyl glycosides as substrate measured for 125 secs by spectrophotometry analysis relative to control. To be noted: time 125.0 sec.
The target in data set [4] is Cholinesterase (Equus caballus) (UniProt P81908). Briefly: Inhibition of equine serum BuChE at 100 uM using butyrylthiocholine iodide as substrate by Ellman's colorimetric analysis relative to control.
Cholinesterase (Equus caballus), sequence (P81908 whole entry): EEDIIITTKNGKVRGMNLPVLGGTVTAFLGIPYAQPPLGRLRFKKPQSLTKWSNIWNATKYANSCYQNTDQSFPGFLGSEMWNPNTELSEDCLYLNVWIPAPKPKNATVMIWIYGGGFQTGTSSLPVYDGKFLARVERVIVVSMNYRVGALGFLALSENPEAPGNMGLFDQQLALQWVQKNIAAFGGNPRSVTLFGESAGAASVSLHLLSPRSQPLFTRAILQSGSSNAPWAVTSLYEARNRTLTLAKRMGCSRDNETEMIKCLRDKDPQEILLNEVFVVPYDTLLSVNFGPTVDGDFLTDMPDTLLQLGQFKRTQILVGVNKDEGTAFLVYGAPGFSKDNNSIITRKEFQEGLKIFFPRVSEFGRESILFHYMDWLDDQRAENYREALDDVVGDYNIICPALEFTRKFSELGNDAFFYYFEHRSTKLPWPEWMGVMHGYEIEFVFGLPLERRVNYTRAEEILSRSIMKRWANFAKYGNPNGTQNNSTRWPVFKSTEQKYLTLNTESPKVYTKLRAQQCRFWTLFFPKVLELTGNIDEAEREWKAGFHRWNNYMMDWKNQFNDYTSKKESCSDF
For data set [5], the system named is Saccharomyces cerevisiae. As to the kind of experiment: Uncompetitive inhibition of Saccharomyces cerevisiae alpha-glucosidase at 100 uM using p-nitrophenyl glycosides as substrate measured for 125 secs by spectrophotometry analysis relative to control. The conditions noted are these: time 125.0 sec.
Data set [6] can be described thus: Competitive inhibition of almond beta-glucosidase using p-nitrophenyl glycosides as substrate measured for 125 secs by spectrophotometry analysis. Set-up: species or system Prunus dulcis.
Data set [7] in a line: Octanol/water partition coefficient, log D of compound at pH 7.4 at 1 uM incubated for 2 hrs by LC-MS analysis. The class given is physicochemical.
Data set [8] can be described thus: Uncompetitive inhibition of Saccharomyces cerevisiae alpha-glucosidase assessed as inhibition constant for inhibitor-substrate-enzyme complex formation using p-nitrophenyl glycosides as substrate measured for 125 secs by spectrophotometry analysis.
The target in data set [9] is T1, Tyrosine-protein kinase Fyn. As to the kind of experiment: Inhibition of amyloid beta-induced Fyn activation in hiPSC neural cells assessed as reduction in tau phosphorylation at Thr 181 residue at 10 uM measured after 4 days by DAPI/Alexa fluor 594 staining based immunocytochemistry analysis. To be noted: Induced pluripotent stem cell-derived neuron, time 4.0 day.
Target sequence in this assay (P06241 2-537 limits assumed): as the sequence (P06241 2-537 limits assumed) above

Data set [10] can be described thus: Cytotoxicity against hiPSC neural cells assessed as reduction in cell viability at 10 uM incubated for 24 hrs by MTT assay. The class given is cell-based. To be noted: human, induced pluripotent stem cell-derived neuron. Background: Tetrazolium assays rely on reduction of a dye to a coloured formazan, in cell work by metabolically active cells.
Data set [11] has as its target Amyloid-beta precursor protein (Homo sapiens) (UniProt P05067). As to the kind of experiment: Inhibition of human amyloid beta (1 to 42) self-induced aggregation at 50 uM by Thioflavin T based fluorometric assay.
Data set [12] in a line: Membrane retention of compound at pH 7.4 incubated for 16 hrs by PAMPA assay. The conditions noted are these: pH 7.4, 16 h. The class given is ADME.
Data set [13] is described as follows: Membrane retention of compound assessed as partial membrane retention at pH 7.4 by LC-MS based PAMPA assay. The class given is ADME. On the technique in general: PAMPA measures passive passage across an artificial lipid membrane.
For data set [14] the following is noted: buffer, 100 µM.
Data set [15] in a line: Aqueous solubility of the compound in 5 % DMSO at 50 to 100 uM incubated for 2 hrs. It is filed as physicochemical. To be noted: buffer, dose 50-100 µM.
Data set [16] has as its target T1, Tyrosine-protein kinase Fyn. As to the kind of experiment: Inhibition of basal Fyn activation in hiPSC neural progenitor cells assessed as reduction in pFyn levels in absence of amyloid beta at 10 uM by DAPI staining based immunofluorescence assay. The conditions noted are these: induced pluripotent stem cell-derived neuron.
Target sequence in this assay (P06241 whole entry): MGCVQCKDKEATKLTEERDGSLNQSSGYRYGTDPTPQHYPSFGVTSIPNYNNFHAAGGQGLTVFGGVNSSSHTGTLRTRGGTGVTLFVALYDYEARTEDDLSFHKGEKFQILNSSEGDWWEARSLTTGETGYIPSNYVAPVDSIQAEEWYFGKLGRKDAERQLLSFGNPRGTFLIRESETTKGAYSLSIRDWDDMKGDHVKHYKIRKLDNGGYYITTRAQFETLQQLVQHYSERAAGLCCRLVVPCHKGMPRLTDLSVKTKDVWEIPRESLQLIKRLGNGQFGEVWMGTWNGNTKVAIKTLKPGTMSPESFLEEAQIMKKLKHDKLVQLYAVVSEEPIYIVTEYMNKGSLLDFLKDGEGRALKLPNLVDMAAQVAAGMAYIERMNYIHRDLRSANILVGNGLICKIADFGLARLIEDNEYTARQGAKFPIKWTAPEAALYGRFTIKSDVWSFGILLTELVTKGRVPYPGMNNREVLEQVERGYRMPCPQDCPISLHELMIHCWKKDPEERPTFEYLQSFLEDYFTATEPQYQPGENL

A word on the inhibition: it is the change of the read-out against control, counted positive when it falls. As a reminder, the pKi is the Ki on a negative log10 scale, so that one unit is a factor of ten. Usually logD stands for the decadic logarithm of the distribution of all forms, ionised or not, between an organic phase and buffer at a given pH. A higher logD goes with higher lipophilicity.

Amyloid-beta precursor protein (Homo sapiens), sequence (P05067 whole entry): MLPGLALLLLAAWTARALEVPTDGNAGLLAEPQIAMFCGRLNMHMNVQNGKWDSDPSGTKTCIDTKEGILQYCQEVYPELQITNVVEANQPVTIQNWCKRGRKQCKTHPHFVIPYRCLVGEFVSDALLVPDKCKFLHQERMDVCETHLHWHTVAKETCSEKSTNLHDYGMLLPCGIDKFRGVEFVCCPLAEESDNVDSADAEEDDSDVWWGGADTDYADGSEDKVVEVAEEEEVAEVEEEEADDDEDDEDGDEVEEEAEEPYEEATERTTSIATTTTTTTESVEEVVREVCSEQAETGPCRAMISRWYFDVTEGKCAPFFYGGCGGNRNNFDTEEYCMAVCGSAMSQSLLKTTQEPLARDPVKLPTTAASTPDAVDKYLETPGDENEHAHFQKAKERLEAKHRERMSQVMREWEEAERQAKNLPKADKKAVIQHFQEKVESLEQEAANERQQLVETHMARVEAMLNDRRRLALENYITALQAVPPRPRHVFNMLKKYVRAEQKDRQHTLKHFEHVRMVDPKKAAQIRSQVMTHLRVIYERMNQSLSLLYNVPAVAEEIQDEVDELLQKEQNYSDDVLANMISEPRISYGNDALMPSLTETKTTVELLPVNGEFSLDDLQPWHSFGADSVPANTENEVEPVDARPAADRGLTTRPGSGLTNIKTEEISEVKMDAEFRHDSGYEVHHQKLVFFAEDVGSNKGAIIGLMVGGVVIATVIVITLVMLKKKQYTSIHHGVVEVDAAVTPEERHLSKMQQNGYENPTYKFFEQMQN

As for `O=c1c(-c2ccc(O)cc2)coc2cc(O)cc(O)c12` [GENISTEIN], the inhibition was 12% in data set [1], 44% in data set [3], 41% in data set [4] and 84% in [5]. In addition, the inhibition entry in data set [2] and in data set [9] was “Active” each time. The negative-log Ki (pKi) is 4.18 in data set [6] and 4.92 in [8]. This molecule also showed a pH-dependent lipophilicity (logD) at 2 h, 1 µM in data set [7] of 3.3. The Activity entry in [10] is recorded as “Non-Toxic”.

On to `COC[C@H]1O[C@@H](c2ccc(OC(=O)c3ccccc3)c(OC(=O)c3ccccc3)c2)[C@H](OC)[C@@H](OC)[C@@H]1OC`, for which the inhibition entry in data set [1] and in data set [11] was “inactive” throughout. In addition, the inhibition entry in data set [2] and in data set [9] was “Active” each time. For the same molecule, the Drug uptake result in [12] and in [13] was “Active” in each case. Further, the inhibition in [4] stood at 12%. In [7], this molecule returned a logD at 2 h, 1 µM of more than 2.5. In addition, the solubility result in [14] and in data set [15] was “Insoluble” in each case. Besides, the “inhibition (INH)” value in data set [16] is on record as “Not Active”. Moreover, the Activity result in data set [10] is reported as “Non-Toxic”.
